In patent publication US4798833A, “Guanine derivative” (priority 1983, dated 1989):

Assays:
[1] = Cellular toxicity, reduction in growth of human embryonic cells; details: flow 1000 cells
HSV-1 (strain C42) [2] = assay: Plaque reduction assay, inhibition of HSV-1 multiplication in HEL cells; type: cell-based, Herpes simplex type 1 virus; details: Human alphaherpesvirus 1, HEL (human embryonic lung) cells, read-out: HSV-1 in HEL cells ID50
HSV-1 (strain C42) [3] = assay: Plaque reduction assay, inhibition of HSV-1 multiplication in Vero cells; type: cell-based, Herpes simplex type 1 virus; details: read-out: Inhibition (%)/Conc. (μM), HSV-1 in Vero cells; for inhibition at 1 µM: Human alphaherpesvirus 1, 1 μM
[4] = tested on: cutaneous herpesvirus infection; assay: Cutaneous herpesvirus infection on guinea pigs, topical treatment; type: in vivo
Method: Thirty μl of solution or solvent was added topically 3 times per day for 4 days starting 24 h post inoculation.

HSV-2 (strain 91075) = assay: Systemic (i.p.) HSV-2 infection in mice; type: in vivo; details: treated animals
HSV-1 thymidine kinase = HSV-1 thymidine kinase (Human herpesvirus 1, UniProt P0DTH5); assay: biochemical; details: for Ki: HSV-1 thymidine kinase, read-out: Inhibition constant Ki
Sequence of HSV-1 thymidine kinase (P0DTH5 whole entry): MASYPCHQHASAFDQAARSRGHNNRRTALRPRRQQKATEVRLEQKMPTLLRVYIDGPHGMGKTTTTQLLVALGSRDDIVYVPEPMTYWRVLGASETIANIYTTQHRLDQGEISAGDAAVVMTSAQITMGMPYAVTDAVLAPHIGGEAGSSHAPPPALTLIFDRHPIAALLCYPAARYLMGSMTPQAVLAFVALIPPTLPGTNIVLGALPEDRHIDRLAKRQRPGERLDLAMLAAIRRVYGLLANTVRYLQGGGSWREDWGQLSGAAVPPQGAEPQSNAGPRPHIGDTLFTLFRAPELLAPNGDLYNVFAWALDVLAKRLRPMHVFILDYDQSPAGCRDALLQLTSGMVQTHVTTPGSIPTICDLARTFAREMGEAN

HSV-1 (C42) = assay: Systemic (i.p.) HSV-1 infection in mice; type: in vivo; details: treated animals
VZV (several strains) = assay: Inhibition of VZV multiplication in HL cells, late antigens by ELISA; type: cell-based, Varicella zoster virus
Method: I. Inhibition of virus multiplication in cell cultures
Virol. 2 357 (1968). The effect on VZV (several strains) multiplication in HL (human lung fibroblast) cells by VSA 671 was determined by measuring the formation of late antigens by the ELISA technique as described by B. Wahren et al., J. Virological Methods 6, 141-149 (1983).

[5] = 25 mg/kg i.p. twice daily 5 days, untreated 90, 21 days
[6] = 50 mg/kg i.p. twice daily 5 days, untreated 90, 21 days

Structure (SMILES) | inhibition at 48 h, 200 µM [1] | IC50 (HSV-1 (strain C42) [2]) | inhibition at 1 µM (HSV-1 (strain C42) [3]) | Percent reduction in cumulative score as compared to placebo treatment ([4]; 2.5% in dimethylsulfoxide, 30 μl topically 3 times per day for 4 days starting 24 h post inoculation) | Therapeutic effect on cutaneous herpesvirus infections (in words) ([4]; topical) | Cumulative mortality (%) (treated/untreated) (HSV-2 (strain 91075); 5 mg/kg i.p. twice daily 5 days, untreated 90, 21 days) | Cumulative mortality (%) (treated/untreated) (HSV-2 (strain 91075); 10 mg/kg i.p. twice daily 5 days, untreated 90, 21 days) | Cumulative mortality (%) (treated/untreated) (HSV-2 (strain 91075); [5]) | Cumulative mortality (%) (treated/untreated) (HSV-2 (strain 91075); 50 mg/kg i.p. twice daily 5 days, untreated 100, 21 days) | Ki (HSV-1 thymidine kinase) | Cumulative mortality (%) (treated/untreated) (HSV-1 (C42); 5 mg/kg i.p. twice daily 5 days, untreated 80, 21 days) | Cumulative mortality (%) (treated/untreated) (HSV-1 (C42); 10 mg/kg i.p. twice daily 5 days, untreated 80, 21 days) | inhibition at 10 µM (HSV-1 (strain C42) [3]; Human alphaherpesvirus 1, 10 μM) | inhibition at 25 µM (HSV-1 (strain C42) [3]; Human alphaherpesvirus 1, 25 μM) | IC50 (VZV (several strains); Human alphaherpesvirus 3, HL (human lung fibroblast) cells, several strains, late antigens by ELISA, read-out: VZV in HL cells ID50) | Effect against varicella zoster virus multiplication (VZV (several strains); in words) | Cumulative mortality (%) (treated/untreated) (HSV-2 (strain 91075); [6]) | Affinity for viral thymidine kinase (in words) (HSV-1 thymidine kinase) | Cumulative mortality (%) (treated/untreated) (HSV-1 (C42); [5]) | Cumulative mortality (%) (treated/untreated) (HSV-1 (C42); [6])
Nc1nc2c(ncn2CCC(CO)CO)c(=O)[nH]1 [VIS 873, 9-[4-hydroxy-3-(hydroxymethyl)butyl]guanine] | 7% | 400 nM | > 90% | 36% | had a therapeutic effect on cutaneous herpesvirus infections when applied topically | 70% | 20% | 0% | 10% | 1500 nM | 30% | 0% |  |  |  |  |  |  |  | 
Nc1nc2c(ncn2C/C=C\CO)c(=O)[nH]1 [VSA 151, cis-9-(4-hydroxy-2-butenyl)guanine] | 0% | 600 nM |  |  |  |  |  |  |  | 7000 nM |  |  | > 90% |  |  |  |  |  |  | 
Nc1nc2c(ncn2CC=C(CO)CO)c(=O)[nH]1 [VSA 668, 9-[4-hydroxy-3-(hydroxymethyl)-2-butenyl]guanine] | 0% |  |  |  |  |  |  |  |  | 25000 nM |  |  |  | > 90% |  |  |  |  |  | 
Nc1nc2c(ncn2CC(CO)CCO)c(=O)[nH]1 (stereo not drawn) [VSA 671, 9-[4-hydroxy-2-(hydroxymethyl)butyl]guanine] | 18% | 200 nM | > 90% |  |  |  |  | 40% |  | 600 nM |  |  |  |  | 1300 to 2500 nM | very good effect against varicella zoster virus multiplication | 30% | affinity close to that of the natural substrate, thymidine | 30% | 30%
